Laboratory results reported in publication PMC4521150, “Discovery of Novel Inhibitors and Fluorescent Probe Targeting NAMPT” (Scientific Reports, 2015).
Where two headings read alike, the source gives them in different places.

How the values were obtained:
HepG2 cells [1] = assay: Cell viability assay (CCK-8) in HepG2 cells; type: cell-based, human; details: for IC50: HepG2, 48 h, CCK-8, read-out: IC50 for inhibitory effect on HepG2 cell viability
Protocol: (§1) Cell viability was determined by our previous method[27] using the Cell Counting Kit-8 (CCK-8, Dojindo, Japan). In human hepatocellular carcinoma cell line HepG2, cells were seeded in 96-well plate and starved for over 12 h with serum-free DMEM at 60~70% confluency, then treated with compounds or vehicle for 48 h. To determine the IC50 values of inhibitors, compounds with various concentrations were added into the 96-well plate. 10 μl CCK-8 solution was added to the culture medium and incubated at 37 °C for 1 h. The absorbance at 450 nm (A450) was detected by a plate reader. Each experiment was carried out in triplicate in three replicate wells. The IC50 values were determined by non-linear fitting of the concentration-dependent curves with the four-parameter IC50 logistic equation.

HepG2 cells [2] = assay: Live cell fluorescence imaging of compounds in HepG2 cells; type: cell-based, human; details: 3 μM, 30 minutes incubation, washed
Protocol: NAMPT knockdown in HepG2 cells was performed by transfection of NAMPT siRNA synthesized by Shanghai GenePharma Co., Ltd (Shanghai, China). The siRNA sequence targeting NAMPT corresponded to coding regions (5′-[…]-3′, 5′-[…]-3′) of the NAMPT gene. The nonspecific siRNA oligonucleotides (synthesized by Shanghai GenePharma Co., Ltd, Shanghai, China) were used as negative controls. 10 nM of NAMPT siRNA or nonspecific siRNA were transfected into HepG2 cells with Lipofectamine RNAiMax reagent (Invitrogen, CA, USA) according to the manufacturer’s instructions. After 24 or 48 hours, transfected cells were subjected to subsequent analysis.
For imaging experiment, HepG2 cells or primary hepatocytes were seeded into 35-mm glass bottom dishes (In Vitro Scientific). The following day, compounds were added to the medium at a final concentration of 3 μM. After 30 minutes, cells were rinsed twice with PBS (pH 7.5), then incubated in fresh culture medium and imaged on a fluorescence microscope (IX-71, Olympus) with a digital camera (Olympus). After 4 hours, these cells were imaged once again. Digital images were recorded and analyzed using ImageJ.

HepG2 NAD levels = assay: Cellular NAD measurement (enzymatic cycling assay) in HepG2 cells; type: cell-based, human
Protocol: Cellular level of NAD was measured by spectrophotometric enzymatic cycling assay, as described previously. Briefly, cells were seeded in 96-well plate and starved for over 12 h with serum-free DMEM at 60~70% confluency, following by treatment with compounds or vehicle for 24 h. Cells were lysed with 50 μl of 1M HClO4 on ice for 30 min. The lysates were cleared by centrifuging at 4 °C at 18,000 × g for 5 min, and cleared lysates (40 μl) were neutralized by adding 1M K2CO3 (16 μl) and incubation on ice for 20 min. After centrifuging for 10 min, 10 μl of supernatant were mixed with reaction buffer [50 mM Tris-HCl (pH 7.5), 3% ethanol, 1.66 mM PES (phenazineethosulfate), 0.42 mM MTT (3-(4,5-dimethylthiazolyl-2)-2,5-diphenyltetrazolium bromide), 90 μg/ml ADH] in a total volume of 100 ul, and incubated at 37 °C for 40 min. The absorbance at 570 nm was determined. A blank measurement without ADH was also carried out. Each experiment was carried out in triplicate in three replicate wells

[3] = tested on: primary mouse hepatocytes; assay: Cell viability of primary hepatocytes from normal mice; type: cell-based; details: 30 μM
Protocol: as §1
Hepatocytes were isolated from mouse liver by the two-step collagenase perfusion method. […] For imaging experiment, 1 × 10^5 cells were plated in a 35-mm glass bottom dishes or 5 × 10^4 were plated in 48-well plate for cell viability assay in DMEM supplemented with 10% FBS and antibiotics, and kept under an atmosphere of 95% air and 5% CO2 at 37 °C.

Huh-7 cell = assay: Cell viability in Huh-7 cells; type: cell-based, human; details: Huh-7, Figure S2
Excerpt: However, IC50 values for other 5 fluorescent compounds were able to be determined (Supplemental dataset S2). We then measured the fluorescence of all 9 fluorescent compounds at a series of different concentrations.

Cc1nc2ccccc2n(Cc2ccc(C(=O)NCc3cccnc3)cc2)c1=O [F671-0003]
Effect on HepG2 cell viability at 2 μM (HepG2 cells [1]; 2 μM, 48 hours of incubation): significant inhibition on cell viability
Inhibition on cell viability (HepG2 cells [1]; HepG2, 2 μM, 48 h): 50%
Rescue of cell viability by exogenous NMN (HepG2 cells [1]; HepG2, 3 μM compound, NMN at 300 μM): totally rescued
IC50 (HepG2 cells [1]): 1690 ± 150 nM
IC50 (HepG2 cells [1]; Homo sapiens): ~2000 nM
Cellular fluorescence in living HepG2 cells (HepG2 cells [2]): did not show any fluorescence
Decrease of cellular NAD level (HepG2 NAD levels; HepG2, 1 μM, 24 hours): ~ 80%
IC50 (HepG2 NAD levels; Homo sapiens, HepG2, 24 hours treatment, read-out: IC50 for reducing NAD level): 6.71 nM
Inhibition of normal hepatocytes viability [3]: ~ 20%
Effect on Huh-7 cell viability (Huh-7 cell): Inhibitory effects
